US20130065897A1, “COMPOUNDS, PREPARATION AND USES THEREOF” (PETER MACCALLUM CANCER INSTITUTE, priority 2009, published 2013)

Experiments:
[1] = tested on: KHYG-1 NK cell-mediated lysis of K562 cells; assay: Inhibition of KHYG-1 NK cell-mediated lysis of K562 cells (51Cr release); format: cell-based; settings: K562 target cells, Effector:Target 2:1, 4 hours 37° C.
Description: Inhibition of KHYG-1 NK Cell-Mediated lysis of K562 Cells
KHYG-1 cells were washed and resuspended in RPMI+0.1% BSA at 4×10^5 cells/ml and 50 μl of KHYG-1 cells were dispensed to each well of a 96-well V-bottom, plate. Test compounds were added to KHYG-1 cells at various concentrations up to 20 μM and incubated at RT for 20 minutes. 1×10^6 K562 target cells were labelled with 75 μCi ^51Cr in 200 μl RPMI for 90 mins at 37° C., cells were washed as described above and resuspended in 5 ml RPMI+0.1% BSA. 50 μl of ^51Cr labelled K562 leukemia target cells were added to each well of the KHYG-1 plate (Effector:Target 2:1) and incubated at 37° C. for 4 hours. ^51Cr release was assayed using a Skatron Harvesting Press and radioactivity estimated on a Wallac Wizard 1470 Automatic Gamma counter (Turku, Finland). The percentage of specific cytotoxicity was calculated by the formula: […]
and expressed as the mean of triplicate assays +/−standard error of the mean.

KHYG-1 NK cells = assay: Toxicity to KHYG-1 NK cells (trypan blue viability); format: cell-based; settings: viable cells as percentage of total (% viability), 18 to 24 hours
Description: Toxicity to KHYG-1 NK Cells
KHYG-1 cells were washed and resuspended in RPMI+0.1% BSA at 4×10^5 cells/ml and 50 μl of KHYG-1 cells were dispensed to each well of a 96-well V-bottom plate. Test compounds were added to KHYG-1 cells at a concentration of 20 μM and incubated at RT for 20 minutes. 100 μL of RPMI 0.1% BSA was added and the cells were incubated for 4 hours at 37° C. then washed ×3 in RPMI+0.1% BSA. Cells were then resuspended in 200 μl of complete medium and incubated for 18 to 24 hours at 37° C. Trypan blue was added to each well and viable (clear) cells counted as a percentage of total (clear+blue) cell number (% viability).

recombinant perforin = recombinant perforin (UniProt P10820); format: cell-based; settings: read-out: Jurkat IC50; recombinant perforin pre-incubated 30 min with compound; 51Cr-labelled Jurkat cells, 0.1% BSA, 37° C. 4 hours
recombinant perforin, sequence (P10820 whole entry): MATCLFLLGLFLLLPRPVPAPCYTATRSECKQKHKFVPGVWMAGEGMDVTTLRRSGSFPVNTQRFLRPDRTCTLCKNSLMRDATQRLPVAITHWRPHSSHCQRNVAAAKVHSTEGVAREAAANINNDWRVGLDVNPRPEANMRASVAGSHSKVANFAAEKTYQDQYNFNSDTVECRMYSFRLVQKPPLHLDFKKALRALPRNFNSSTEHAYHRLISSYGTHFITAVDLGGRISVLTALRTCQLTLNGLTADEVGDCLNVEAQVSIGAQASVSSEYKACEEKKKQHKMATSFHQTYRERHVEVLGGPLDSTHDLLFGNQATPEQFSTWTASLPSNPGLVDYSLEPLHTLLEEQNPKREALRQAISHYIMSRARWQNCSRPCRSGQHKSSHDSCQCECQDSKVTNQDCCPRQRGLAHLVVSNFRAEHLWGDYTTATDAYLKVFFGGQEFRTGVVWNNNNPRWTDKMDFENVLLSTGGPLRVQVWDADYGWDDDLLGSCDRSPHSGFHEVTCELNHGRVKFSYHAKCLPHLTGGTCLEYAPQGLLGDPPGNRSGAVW
Description: Inhibition of Perforin-Mediated Lysis of Jurkat Cells
The ability of the compounds to inhibit the lysis of nucleated (Jurkat T lymphoma) cells in the presence of 0.1% BSA, as measured by release of ^51Cr was measured. Jurkat target cells were labelled by incubation in medium with 100 μCi ^51Cr for one hour. The cells were then washed three times to remove unincorporated isotope and re-suspended at 1×10^5 cells per mL in RPMI buffer supplemented with 0.1% BSA. […] The supernatant was collected and assessed for its radioactive content on a gamma counter (Wallac Wizard 1470 automatic gamma counter). Each data point was performed in triplicate and an IC50 was calculated from the range of concentrations described to above.

| Structure (SMILES) | inhibition at 20 µM [1] [%] | percent viable KHYG-1 cells (trypan blue) at 20 μM (KHYG-1 NK cells) [%] | melting point [°C] | IC50 (recombinant perforin) [nM] |
| --- | --- | --- | --- | --- |
| O=C1NC(=S)N/C1=C/c1ccc(-c2ccc3c(c2)COC3=O)o1 [Cmpd 1, (E,Z)-5-((5-(1-Oxo-1,3-dihydroisobenzofuran-5-yl)furan-2-yl)methylene)-2-thioxoimidazolidin-4-one] | 95 | 66 | > 300 | – |
| O=C1NC(=O)/C(=C\c2ccc(-c3ccc4c(c3)COC4=O)s2)N1 [Cmpd 3, (E,Z)-5-((5-(1-Oxo-1,3-dihydroisobenzofuran-5-yl)thiophen-2-yl)methylene)imidazolidine-2,4-dione] | 70 | 82 | > 300 | – |
| [H]/N=C1/NC(=O)/C(=C\c2ccc(-c3ccc4c(c3)COC4=O)s2)N1C [Cmpd 4, (E,Z)-2-Imino-1-methyl-5-((5-(1-oxo-1,3-dihydroisobenzofuran-5-yl)thiophen-2-yl)methylene)imidazolidin-4-one] | 50 | 100 | > 300 | – |
| O=C1NC(=S)N/C1=C\c1cccc(-c2ccc3c(c2)COC3=O)c1 [Cmpd 5, (E,Z)-5-(3-(1-Oxo-1,3-dihydroisobenzofuran-5-yl)benzylidene)-2-thioxoimidazolidin-4-one] | 64 | 97 | 285 to 288 | – |
| O=C1NC(=S)N/C1=C\c1ccc(-c2ccc3c(c2)COC3=O)cc1 [Cmpd 6, (E,Z)-5-(4-(1-Oxo-1,3-dihydroisobenzofuran-5-yl)benzylidene)-2-thioxoimidazolidin-4-one] | 50 | 95 | > 300 | – |
| O=C1NC(=S)N/C1=C\c1ccc(-c2ccc3c(c2)COC3=O)cn1 [Cmpd 8, (E,Z)-5-((5-(1-oxo-1,3-dihydroisobenzofuran-5-yl)pyridin-2-yl)methylene)-2-thioxoimidazolidin-4-one] | 57 | 96 | > 300 | – |
| O=C1NC(=S)N/C1=C\c1csc2ccc(-c3ccc4c(c3)COC4=O)cc12 [Cmpd 9] | 80 | 0 | > 300 | – |
| O=C1NC(=S)N/C1=C/c1cc(-c2ccc3c(c2)COC3=O)cs1 [Cmpd 15, (E,Z)-5-((4-(1-Oxo-1,3-dihydroisobenzofuran-5-yl)thiophen-2-yl)methylene)-2-thioxoimidazolidin-4-one] | 67 | 96 | > 300 | – |
| O=C1NC(=S)N/C1=C/c1ccc(-c2cccnc2)s1 [Cmpd 26, (E,Z)-5-((5-(Pyridin-3-yl)thiophen-2-yl)methylene)-2-thioxoimidazolidin-4-one] | – | – | > 295 | 12900 |
| O=C1C/C(=C/c2ccc(-c3ccc4c(c3)COC4=O)s2)C(=O)N1 [Cmpd 36, (E,Z)-3-((5-(1-Oxo-1,3-dihydroisobenzofuran-5-yl)thiophen-2-yl)methylene)pyrrolidine-2,5-dione] | 51 | 65 | > 295 | – |
| O=C1NCC/C1=C\c1ccc(-c2ccc3c(c2)COC3=O)s1 [Cmpd 37, (E,Z)-3-((5-(1-Oxo-1,3-dihydroisobenzofuran-5-yl)thiophen-2-yl)methylene)pyrrolidin-2-one] | 20 | 97 | 224 to 227 | – |
| O=C1NC(=S)N/C1=C\c1cccc(-c2ccc3c(c2)CNC3=O)c1 [Cmpd 49, (E,Z)-5-(3-((5-Oxo-2-thioxoimidazolidin-4-ylidene)methyl)phenyl)isoindolin-1-one] | 8 | – | > 300 | 3440 |
| O=C1NC(=S)N/C1=C/c1cc(-c2ccc3c(c2)CNC3=O)cs1 [Cmpd 50, (E,Z)-5-(5-((5-Oxo-2-thioxoimidazolidin-4-ylidene)methyl)thiophen-3-yl)isoindolin-1-one] | 42 | – | > 300 | 3000 |
| O=C1NC(=S)N/C1=C/c1ccc(-c2ccc3c(c2)COC3=O)[nH]1 [Cmpd 53, (E,Z)-5-((5-(1-Oxo-1,3-dihydroisobenzofuran-5-yl)-1H-pyrrol-2-yl)methylene)-2-thioxoimidazolidin-4-one] | 30 | – | > 300 | 2450 |
| O=C1NC(=S)N/C1=C/c1cnc(-c2ccc3c(c2)COC3=O)o1 [Cmpd 54, (E,Z)-5-((2-(1-Oxo-1,3-dihydroisobenzofuran-5-yl)oxazol-5-yl)methylene)-2-thioxoimidazolidin-4-one] | 55 | 100 | > 295 | – |
| O=C1NC(=S)N/C1=C\c1nc(-c2ccc3c(c2)COC3=O)cs1 [Cmpd 56, (E,Z)-5-((4-(1-Oxo-1,3-dihydroisobenzofuran-5-yl)thiazol-2-yl)methylene)-2-thioxoimidazolidin-4-one] | – | – | > 295 | 1410 |
| O=C1NC(=S)N/C1=C\c1csc(-c2ccc3c(c2)COC3=O)n1 [Cmpd 57, (E,Z)-5-((2-(1-Oxo-1,3-dihydroisobenzofuran-5-yl)thiazol-4-yl)methylene)-2-thioxoimidazolidin-4-one] | – | – | > 295 | 340 |
| O=C1NC(=S)N/C1=C\c1cc(-c2ccc3c(c2)COC3=O)no1 [Cmpd 58, (E,Z)-5-((3-(1-Oxo-1,3-dihydroisobenzofuran-5-yl)isoxazol-5-yl)methylene)-2-thioxoimidazolidin-4-one] | 39 | 82 | > 300 | – |
| O=C1NC(=S)N/C1=C\c1csnc1-c1ccc2c(c1)COC2=O [Cmpd 59, (E,Z)-5-((3-(1-Oxo-1,3-dihydroisobenzofuran-5-yl)isothiazol-4-yl)methylene)-2-thioxoimidazolidin-4-one] | 24 | 93 | > 300 | – |
| O=C1NC(=S)N/C1=C\c1cc(-c2ccc3c(c2)COC3=O)ns1 [Cmpd 60, (E,Z)-5-((3-(1-Oxo-1,3-dihydroisobenzofuran-5-yl)isothiazol-5-yl)methylene)-2-thioxoimidazolidin-4-one] | 45 | – | > 300 | 1440 |
| O=C1NC(=S)N/C1=C/c1ccc(-c2ccc3c(c2)CN(CCN2CCOCC2)C3=O)s1 [Cmpd 67, (E,Z)-2-(2-Morpholinoethyl)-5-(5-((5-oxo-2-thioxoimidazolidin-4-ylidene)methyl)thiophen-2-yl)isoindolin-1-one] | 78 | 73 | 261 to 264 | – |
| CN1CCN(CCCN2Cc3cc(-c4ccc(/C=C5/NC(=S)NC5=O)s4)ccc3C2=O)CC1 [Cmpd 76, (E,Z)-2-(3-(4-Methylpiperazin-1-yl)propyl)-5-(5-((5-oxo-2-thioxoimidazolidin-4-ylidene)methyl)thiophen-2-yl)isoindolin-1-one] | 58 | – | 197 to 201 | > 20000 |
| O=C1NC(=S)N/C1=C/c1cc2cc(-c3ccc4c(c3)COC4=O)ccc2s1 [Cmpd 79, (E,Z)-5-((5-(1-Oxo-1,3-dihydroisobenzofuran-5-yl)benzo[b]thiophen-2-yl)methylene)-2-thioxoimidazolidin-4-one] | 59 | 72 | > 305 | – |
| O=C1NC(=S)N/C1=C\c1ccc(-c2ccc3c(c2)C(=O)NCC3)s1 [Cmpd 81, (E,Z)-7-(5-((5-Oxo-2-thioxoimidazolidin-4-ylidene)methyl)thiophen-2-yl)-3,4-dihydroisoquinolin-1(2H)-one] | 62 | 88 | – | 670 |
| O=C1NC(=S)N/C1=C\c1ccc(-c2ccc3c(c2)CCNC3=O)s1 [Cmpd 82, (E,Z)-6-(5-((5-Oxo-2-thioxoimidazolidin-4-ylidene)methyl)thiophen-2-yl)-3,4-dihydroisoquinolin-1(2H)-one] | 92 | 80 | – | 1140 |
